Experimental data reported in ChEMBL document CHEMBL1201862, “PubChem BioAssay data set” (2004).
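Following 48 hours of exposure in 96-well plates, responses at five concentrations were used to interpolate endpoints linearly. GI50 marks 50% less growth.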 The source made the active and inactive calls. No stated cut-off is given here; in the data, active = GI50 up to about 1.1 µM and inactive = higher.

Assays:
Assay in all cases: inhibition of tumour cell growth, NCI panel, 48 h
[1] = test system: NCI-H460
[2] = test system: A549
[3] = test system: U-251
[4] = test system: HOP-18
[5] = test system: SK-OV-3
[6] = test system: OVCAR-5
[7] = test system: LXFL 529
[8] = test system: DLD-1
[9] = test system: UO-31
[10] = test system: OVCAR-4
[11] = test system: MOLT-4
[12] = test system: TK-10
[13] = test system: SK-MEL-5
[14] = test system: CAKI-1
[15] = test system: DMS-114
[16] = test system: RPMI-8226
[17] = test system: HT-29
[18] = test system: A498
[19] = test system: SNB-78
[20] = test system: DMS-273
[21] = test system: UACC-62
[22] = test system: HCT-15
[23] = test system: K562
[24] = test system: EKVX
[25] = test system: KM12
[26] = test system: IGROV-1
[27] = test system: NCI-H23
[28] = test system: M14
[29] = test system: HCT-116
[30] = test system: COLO 205
[31] = test system: SNB-19
[32] = test system: KM-20L2
[33] = test system: UACC-257
[34] = test system: SF-268
[35] = test system: OVCAR-8
[36] = test system: HOP-92
[37] = test system: 786-0
[38] = test system: SW-620
[39] = test system: ACHN
[40] = test system: SK-MEL-28
[41] = test system: NCI-H226
[42] = test system: SF-539
[43] = test system: SK-MEL-2
[44] = test system: M19-MEL
[45] = test system: Malme-3M
[46] = test system: RXF 393
[47] = test system: SF-295
[48] = test system: NCI-H522
[49] = test system: SN12C
[50] = test system: HCC 2998
[51] = test system: LOX IMVI
[52] = test system: SR
[53] = test system: XF498
[54] = test system: HOP-62
[55] = test system: OVCAR-3
[56] = test system: CCRF-CEM
[57] = test system: SNB-75
[58] = test system: HL-60

c1ccc2c(c1)[nH]c1c2nc2ccccn21
GI50 [1]: > 100 µM (inactive) | GI50 [2]: > 100 µM (inactive) | GI50 [3]: > 100 µM (inactive) | GI50 [4]: > 100 µM (inactive) | GI50 [5]: > 100 µM (inactive) | GI50 [6]: > 100 µM (inactive) | GI50 [7]: > 100 µM (inactive) | GI50 [8]: > 100 µM (inactive) | GI50 [9]: > 100 µM (inactive) | GI50 [10]: > 100 µM (inactive) | GI50 [11]: > 100 µM (inactive) | GI50 [12]: 69 µM (inactive) | GI50 [13]: > 100 µM (inactive) | GI50 [14]: > 100 µM (inactive) | GI50 [15]: > 100 µM (inactive) | GI50 [16]: > 100 µM (inactive) | GI50 [17]: > 100 µM (inactive) | GI50 [18]: > 100 µM (inactive) | GI50 [19]: > 100 µM (inactive) | GI50 [20]: > 100 µM (inactive) | GI50 [21]: > 100 µM (inactive) | GI50 [22]: > 100 µM | GI50 [23]: > 100 µM (inactive) | GI50 [24]: > 100 µM (inactive) | GI50 [25]: > 100 µM (inactive) | GI50 [26]: > 100 µM (inactive) | GI50 [27]: > 100 µM (inactive) | GI50 [28]: > 100 µM (inactive) | GI50 [29]: > 100 µM (inactive) | GI50 [30]: > 100 µM (inactive) | GI50 [31]: > 100 µM (inactive) | GI50 [32]: > 100 µM (inactive) | GI50 [33]: > 100 µM (inactive) | GI50 [34]: > 100 µM (inactive) | GI50 [35]: > 100 µM (inactive) | GI50 [36]: > 100 µM (inactive) | GI50 [37]: > 100 µM (inactive) | GI50 [38]: > 100 µM (inactive) | GI50 [39]: > 100 µM (inactive) | GI50 [40]: > 100 µM (inactive)

N#CCCN(CCC#N)c1ccc(/C=C2\N=C(c3cc([N+](=O)[O-])ccc3Cl)N(NC(=O)CC(=O)Nc3ccccc3Cl)C2=O)cc1
GI50 [41]: 16.1 µM (inactive) | GI50 [2]: > 100 µM (inactive) | GI50 [3]: > 100 µM (inactive) | GI50 [5]: > 100 µM (inactive) | GI50 [6]: 26.5 µM (inactive) | GI50 [7]: > 100 µM (inactive) | GI50 [8]: > 100 µM (inactive) | GI50 [9]: > 100 µM (inactive) | GI50 [10]: > 100 µM (inactive) | GI50 [11]: > 100 µM (inactive) | GI50 [42]: > 100 µM (inactive) | GI50 [43]: > 100 µM (inactive) | GI50 [12]: > 100 µM (inactive) | GI50 [13]: > 100 µM (inactive) | GI50 [14]: > 100 µM (inactive) | GI50 [15]: > 100 µM (inactive) | GI50 [16]: > 100 µM (inactive) | GI50 [44]: > 100 µM (inactive) | GI50 [45]: > 100 µM (inactive) | GI50 [46]: > 100 µM (inactive) | GI50 [47]: > 100 µM (inactive) | GI50 [19]: > 100 µM (inactive) | GI50 [48]: > 100 µM (inactive) | GI50 [20]: > 100 µM (inactive) | GI50 [21]: > 100 µM (inactive) | GI50 [22]: > 100 µM | GI50 [23]: > 100 µM (inactive) | GI50 [24]: > 100 µM (inactive) | GI50 [25]: > 100 µM (inactive) | GI50 [26]: > 100 µM (inactive) | GI50 [27]: > 100 µM (inactive) | GI50 [28]: > 100 µM (inactive) | GI50 [49]: > 100 µM (inactive) | GI50 [50]: > 100 µM (inactive) | GI50 [29]: > 100 µM (inactive) | GI50 [30]: > 100 µM (inactive) | GI50 [51]: > 100 µM (inactive) | GI50 [31]: > 100 µM (inactive) | GI50 [32]: 16.3 µM (inactive) | GI50 [34]: > 100 µM (inactive) | GI50 [52]: > 100 µM (inactive) | GI50 [53]: > 100 µM (inactive) | GI50 [35]: > 100 µM (inactive) | GI50 [54]: > 100 µM (inactive) | GI50 [36]: > 100 µM (inactive) | GI50 [55]: > 100 µM (inactive) | GI50 [56]: > 100 µM (inactive) | GI50 [38]: > 100 µM (inactive) | GI50 [39]: > 100 µM (inactive) | GI50 [40]: > 100 µM (inactive)

NC(=O)C(c1ccccc1)N1CCOCC1 (configuration not stated)
GI50 [41]: > 100 µM (inactive) | GI50 [1]: > 100 µM (inactive) | GI50 [2]: > 100 µM (inactive) | GI50 [3]: > 100 µM (inactive) | GI50 [4]: > 100 µM (inactive) | GI50 [5]: > 100 µM (inactive) | GI50 [6]: > 100 µM (inactive) | GI50 [7]: > 100 µM (inactive) | GI50 [8]: > 100 µM (inactive) | GI50 [9]: > 100 µM (inactive) | GI50 [10]: > 100 µM (inactive) | GI50 [11]: > 100 µM (inactive) | GI50 [42]: > 100 µM (inactive) | GI50 [43]: > 100 µM (inactive) | GI50 [12]: > 100 µM (inactive) | GI50 [13]: > 100 µM (inactive) | GI50 [14]: > 100 µM (inactive) | GI50 [15]: > 100 µM (inactive) | GI50 [16]: > 100 µM (inactive) | GI50 [17]: > 100 µM (inactive) | GI50 [18]: > 100 µM (inactive) | GI50 [44]: > 100 µM (inactive) | GI50 [57]: > 100 µM (inactive) | GI50 [45]: > 100 µM (inactive) | GI50 [46]: > 100 µM (inactive) | GI50 [47]: > 100 µM (inactive) | GI50 [19]: > 100 µM (inactive) | GI50 [48]: > 100 µM (inactive) | GI50 [20]: > 100 µM (inactive) | GI50 [21]: > 100 µM (inactive) | GI50 [22]: > 100 µM | GI50 [23]: > 100 µM (inactive) | GI50 [25]: > 100 µM (inactive) | GI50 [26]: > 100 µM (inactive) | GI50 [27]: > 100 µM (inactive) | GI50 [28]: > 100 µM (inactive) | GI50 [49]: > 100 µM (inactive) | GI50 [29]: > 100 µM (inactive) | GI50 [30]: > 100 µM (inactive) | GI50 [51]: > 100 µM (inactive) | GI50 [32]: > 100 µM (inactive) | GI50 [33]: > 100 µM (inactive) | GI50 [34]: > 100 µM (inactive) | GI50 [58]: > 100 µM (inactive) | GI50 [52]: > 100 µM (inactive) | GI50 [35]: > 100 µM (inactive) | GI50 [54]: > 100 µM (inactive) | GI50 [36]: > 100 µM (inactive) | GI50 [55]: > 100 µM (inactive) | GI50 [37]: > 100 µM (inactive) | GI50 [56]: > 100 µM (inactive) | GI50 [38]: > 100 µM (inactive) | GI50 [39]: > 100 µM (inactive) | GI50 [40]: > 100 µM (inactive)

O=C(c1ccco1)N(C(=S)N1CCN(c2ccccc2)CC1)C1CCCCC1
GI50 [1]: 76 µM (inactive) | GI50 [2]: 67.1 µM (inactive) | GI50 [3]: > 100 µM (inactive) | GI50 [4]: > 100 µM (inactive) | GI50 [5]: > 100 µM (inactive) | GI50 [6]: > 100 µM (inactive) | GI50 [7]: 95.5 µM (inactive) | GI50 [8]: 85.1 µM (inactive) | GI50 [9]: 33.3 µM (inactive) | GI50 [10]: > 100 µM (inactive) | GI50 [11]: > 100 µM (inactive) | GI50 [42]: > 100 µM (inactive) | GI50 [43]: > 100 µM (inactive) | GI50 [12]: > 100 µM (inactive) | GI50 [13]: 56.4 µM (inactive) | GI50 [14]: > 100 µM (inactive) | GI50 [15]: 38.7 µM (inactive) | GI50 [16]: > 100 µM (inactive) | GI50 [17]: 63.5 µM (inactive) | GI50 [44]: > 100 µM (inactive) | GI50 [57]: 50.5 µM (inactive) | GI50 [45]: > 100 µM (inactive) | GI50 [46]: 52.6 µM (inactive) | GI50 [47]: 79.8 µM (inactive) | GI50 [19]: > 100 µM (inactive) | GI50 [48]: > 100 µM (inactive) | GI50 [20]: 59.4 µM (inactive) | GI50 [21]: > 100 µM (inactive) | GI50 [22]: 94.6 µM | GI50 [23]: > 100 µM (inactive) | GI50 [25]: > 100 µM (inactive) | GI50 [26]: > 100 µM (inactive) | GI50 [27]: > 100 µM (inactive) | GI50 [28]: 98.4 µM (inactive) | GI50 [49]: > 100 µM (inactive) | GI50 [29]: 62.8 µM (inactive) | GI50 [30]: 45 µM (inactive) | GI50 [51]: 57.3 µM (inactive) | GI50 [31]: > 100 µM (inactive) | GI50 [32]: 90.4 µM (inactive) | GI50 [33]: 72.4 µM (inactive) | GI50 [34]: > 100 µM (inactive) | GI50 [58]: > 100 µM (inactive) | GI50 [52]: > 100 µM (inactive) | GI50 [35]: > 100 µM (inactive) | GI50 [54]: > 100 µM (inactive) | GI50 [36]: > 100 µM (inactive) | GI50 [55]: > 100 µM (inactive) | GI50 [37]: > 100 µM (inactive) | GI50 [56]: > 100 µM (inactive) | GI50 [38]: > 100 µM (inactive) | GI50 [39]: > 100 µM (inactive) | GI50 [40]: > 10 µM (inactive)
